Entries after “also recorded” stand apart in the source; their conditions may differ.
Experiments:
WT 6XC57BL6 mice = assay: Non-GLP toxicology analysis of esophagus and stomach (H&E, inflammation); assay type: in vivo, mouse; conditions: for overall safety / toxicology: in vivo
Description: Starting at 5 months of age, WT 6XC57BL6 mice were given either the highest dose of diAcCA used in this study (50 mg/kg) or olive oil vehicle three times a week for three months by oral gavage/PO. Following the treatment, the esophagus and stomach were isolated, and 5 μm-thick coronal and sagittal sections were cut from the esophagus. The stomach was opened along the greater curvature, cleaned with PBS, and pinned flat. Two 5 μm-thick sagittal sections were collected, one extending from the cardiac region to the duodenum, and the other from the forestomach to the fundic area. All sections were made using a rotary microtome (HM325-#387821, Fisher Scientific) and mounted on SuperfrostPlus slides (#1255015, Fisher brand). The sections were stained by hematoxylin and eosin stain (H&E) [Abcam H&E kit, ab245880], mounted with permount, dried overnight at room temperature, and then imaged. Acquired images were analyzed in a masked fashion for inflammation by a board-certified pathologist.
Extensive toxicity and safety data are already published on CA [47, 48]. […] Accordingly, in light of our PK findings, we selected a dose of 50 mg/kg to assess safety of the drug after oral administration to WT mice. We performed a non-GLP toxicology analysis of vehicle (olive oil) or drug administered PO three times a week for 3 months starting at 5 months of age. Following this period, sections from the stomach and esophagus were stained with H&E and examined blindly by a board-certified toxicologic pathologist.
Supplementary Figure S2. Pharmacokinetic and safety studies for diAcCA. […]
(D, E) Non-GLP toxicology analysis on WT mice after treatment with vehicle ( olive oil) or the highest concentration of diAcCA (50 mg/ kg) used in these experiments.
Representative esophagus and stomach lining sections (D) stained by hematoxylin & eosin (H&E) from two groups of mice. Scale: 500 μm. Bar graph (E) quantifying inflammation in esophagus (periesophagitis) and stomach (neutrophilic gastritis) by a standard tox inflammatory score ranging from 0 to 4 (0: inflammation within normal limits, 1: minimal […]
baseline inflammation in WT mice (n =3 animals in each group).
(1 picture or pasted object on this page, not shown here)

[1] = system: DAM-related genes in 5xFAD mouse brain; assay: nCounter NanoString neuropathology gene expression panel; assay type: in vivo
Description: (§1) diAcCA or control vehicle was administered three times per week for 3 months to 5xFAD Tg or WT littermate control mice starting at approximately 5 months of age by oral gavage (designated here as “per os” or PO). Three different doses were used (10 mg/kg, 20 mg/kg, or 50 mg/kg). diAcCA was dissolved in olive oil vehicle, a non-polar organic solvent. For vehicle control, we administered olive oil alone. A total of 45 animals were used in this study, with 7–8 animals in each group.
The hippocampus/cortex were isolated from the brain and RNA isolation was performed immediately using the Quick-RNA Miniprep kit (76211-580, VWR, Radnor, PA, USA). RNA was then analyzed by the Salk Institute Single-Cell & Spatial Omics Core for the nCounter Neuropathology panel (NanoString, Bruker Spatial Biology, Inc., Seattle, WA, USA). The list of genes included in the NanoString analysis is provided as Supplementary Information (Table S3). The analysis was performed using the following packages on R studio software version 4.2.3: readr 2.1.5, dplyr 1.1.4, clusterProfiler 4.6.2, org.mm.eg.db 3.16.0, ggplot2 3.5.1, and stringr 1.5.1.
To elucidate the molecular underpinnings of the effect of diAcCA on neuroinflammation, we next analyzed disease-associated microglia (DAM) signatures in WT and 5xFAD mouse brains using nCounter® biomarker analysis (NanoString, Bruker Spatial Biology, Inc., […]). RNA was isolated from the hippocampus/cortex of WT and 5xFAD mice that had received three-month vehicle or diAcCA treatment, and a NanoString neuropathology gene expression panel was performed (Figure 4).

[2] = Shelf life / stability of the compound over time; assay type: physicochemical; conditions: storage (CA: even if kept in the dark and cold)
5xFAD mice = assay: Morris water maze probe test; assay type: in vivo, mouse; conditions: for Morris water maze probe test, time in the platform quadrant zone: compared to WT control mice; for Morris water maze probe test, percentage of time in the target quadrant / Morris water maze probe test, time to first enter the platform zone: compared to WT controls
Description: as §1
The Morris water maze test is used to evaluate spatial learning and memory skills in rodents. In the experimental setup, mice are placed in a circular tank containing opaque water maintained at a consistent temperature of 21 ± 1 °C. The mice undergo 2 trials each day for a period of 4 days during which they are trained to find a hidden platform placed somewhere within the tank. The platform acts as an escape for the mice from swimming. The starting point of the mice in the tank is randomized; however, the location of the platform remains unchanged for a given mouse. After entering the water, the mice are given a maximum of 90 s to navigate to the platform and climb it. If a mouse is unable to find the platform in this duration, the experimenter offers gentle guidance to help it in reaching the platform. On day 5, after the training phase is over, a “probe trial” is conducted in which the platform is removed from the water maze. The mice are allowed to swim for a period of 60 s to observe if they learned to use spatial cues to navigate to safety (i.e., swim to the area in which the platform had been located and then spend more time in this quadrant of the pool than the other quadrants). After each trial, the mice are given a 10 min rest period in which they are transferred to a new cage with a warm towel. Data are analyzed using Noldus EthoVision software (version XT 17, Leesburg, VA, USA) with parameters measured for “latency to escape” for the acquisition trials and “quadrant time” as well as “distance and velocity of swimming” in the probe test.
To delineate the effect of diAcCA on spatial memory, we performed the Morris water maze probe test, a widely used assessment for evaluating hippocampal-dependent memory. After diAcCA or vehicle treatment of WT and 5xFAD mice for 3 months starting at 5 months of age, the animals were initially trained for […] to ensure learning of the spatial memory task, i.e., swimming to the location of a hidden platform in the opaque water maze that the mice could stand on. Subsequently, their memory for the task was measured using the “probe test”, monitoring how well each mouse recalled the location of the platform once it had been removed from the swimming tank. This was assessed by the amount of time spent in the proper quadrant of the tank that previously housed the platform (the “target” quadrant) vs. other quadrants.

## CC(=O)Oc1c(C(C)C)cc2c(c1OC(C)=O)[C@@]1(C(=O)O)CCCC(C)(C)[C@@H]1CC2 [diAcCA]
WT 6XC57BL6 mice; WT mice, 50 mg/kg PO three times a week for 3 months vs olive oil vehicle, n = 3, 50 mg/kg
  baseline inflammation in the esophagus (periesophagitis), H&E: appeared to improve; also recorded: improved baseline inflammation in the esophagus
WT 6XC57BL6 mice; mouse
  overall safety / toxicology: as safe or safer than CA
  toxicity to the digestive system after oral administration: no toxicity was noted
WT 6XC57BL6 mice; mouse, listed as diAcCa
  overall safety / toxicology: no toxicological issues
[1]; 5xFAD brain, 20 or 50 mg/kg vs vehicle, n = 3
  expression of DAM genes C3 and Igf1: significantly downregulated
[1]; 5xFAD hippocampus/cortex RNA, three-month treatment, n = 3
  DAM signature (heatmap of DAM-related genes): dose-dependent decrease in DAM signature
[1]; diAcCA-treated 5xFAD brain vs vehicle-treated
  GO biological pathway analysis of upregulated and downregulated genes: upregulation of genes enriched in pathways associated with neuroprotection
[2]
  shelf life / stability over time: stable in our hands for over two years
[2]; listed as diAcCa
  shelf life / stability over time: stable shelf life (of over two years)
5xFAD mice; 10 mg/kg and 20 mg/kg
  Morris water maze probe test, time in the platform quadrant zone: spent significantly less time in the platform quadrant zone compared to WT control mice
5xFAD mice; 10 mg/kg
  Morris water maze probe test, percentage of time in the target quadrant: spent significantly less time in the target quadrant
  Morris water maze probe test, time to first enter the platform zone: took significantly more time to first enter the platform zone compared to WT controls
5xFAD mice; 20 mg/kg and 50 mg/kg
  Morris water maze probe test, percentage of time in the target quadrant: spent a similar percentage of time in the target and other quadrants as the WT controls
  Morris water maze probe test, time to first enter the platform zone: took a similar amount of time compared to WT controls
5xFAD mice; 50 mg/kg
  Morris water maze probe test, time in the platform quadrant zone: spent similar amount of time in the platform quadrant as WT control mice
5xFAD mice; ≥20 mg/kg, or, for total time spent in the target quadrant, 50 mg/kg
  Morris water maze probe test, performance (time in target quadrant, time to reach platform zone): performed significantly better

— PMC11939361, “diAcCA, a Pro-Drug for Carnosic Acid That Activates the Nrf2 Transcriptional Pathway, Shows Efficacy in the 5xFAD Transgenic Mouse Model of Alzheimer’s Disease” (Antioxidants, 2025)
